# Data: BigSolDB 2.1
compound,measurement,setting,value
COc1ccc(C(=O)O)c(OC)c1,solubility (mole fraction),"in ethanol, 288.15 K",0.0116
same,solubility (mole fraction),"in ethanol, 293.15 K",0.0149
same,solubility (mole fraction),"in ethanol, 298.15 K",0.0191
same,solubility (mole fraction),"in ethanol, 303.15 K",0.0244
same,solubility (mole fraction),"in ethanol, 308.15 K",0.0312
same,solubility (mole fraction),"in ethanol, 313.15 K",0.0398
same,solubility (mole fraction),"in ethanol, 318.15 K",0.0507
same,solubility (mole fraction),"in ethanol, 323.15 K",0.0644
same,solubility (mole fraction),"in ethyl acetate, 288.15 K",0.0165
same,solubility (mole fraction),"in ethyl acetate, 293.15 K",0.0205
same,solubility (mole fraction),"in ethyl acetate, 298.15 K",0.0253
same,solubility (mole fraction),"in ethyl acetate, 303.15 K",0.0312
same,solubility (mole fraction),"in ethyl acetate, 308.15 K",0.0382
same,solubility (mole fraction),"in ethyl acetate, 313.15 K",0.0467
same,solubility (mole fraction),"in ethyl acetate, 318.15 K",0.0567
same,solubility (mole fraction),"in ethyl acetate, 323.15 K",0.0687
same,solubility (mole fraction),"in isobutanol, 288.15 K",0.0059
same,solubility (mole fraction),"in isobutanol, 293.15 K",0.0079
same,solubility (mole fraction),"in isobutanol, 298.15 K",0.0105
same,solubility (mole fraction),"in isobutanol, 303.15 K",0.0139
same,solubility (mole fraction),"in isobutanol, 308.15 K",0.0183
same,solubility (mole fraction),"in isobutanol, 313.15 K",0.0239
same,solubility (mole fraction),"in isobutanol, 318.15 K",0.0311
same,solubility (mole fraction),"in isobutanol, 323.15 K",0.0401
same,solubility (mole fraction),"in isopropanol, 288.15 K",0.0059
same,solubility (mole fraction),"in isopropanol, 293.15 K",0.0081
same,solubility (mole fraction),"in isopropanol, 298.15 K",0.0109
same,solubility (mole fraction),"in isopropanol, 303.15 K",0.0147
same,solubility (mole fraction),"in isopropanol, 308.15 K",0.0195
same,solubility (mole fraction),"in isopropanol, 313.15 K",0.0259
same,solubility (mole fraction),"in isopropanol, 318.15 K",0.034
same,solubility (mole fraction),"in isopropanol, 323.15 K",0.0445
same,solubility (mole fraction),"in n-butanol, 288.15 K",0.0086
same,solubility (mole fraction),"in n-butanol, 293.15 K",0.0112
same,solubility (mole fraction),"in n-butanol, 298.15 K",0.0146
same,solubility (mole fraction),"in n-butanol, 303.15 K",0.0188
same,solubility (mole fraction),"in n-butanol, 308.15 K",0.0242
same,solubility (mole fraction),"in n-butanol, 313.15 K",0.0309
same,solubility (mole fraction),"in n-butanol, 318.15 K",0.0393
same,solubility (mole fraction),"in n-butanol, 323.15 K",0.0498
same,solubility (mole fraction),"in n-propanol, 288.15 K",0.0087
same,solubility (mole fraction),"in n-propanol, 293.15 K",0.0114
same,solubility (mole fraction),"in n-propanol, 298.15 K",0.015
same,solubility (mole fraction),"in n-propanol, 303.15 K",0.0195
same,solubility (mole fraction),"in n-propanol, 308.15 K",0.0252
same,solubility (mole fraction),"in n-propanol, 313.15 K",0.0325
same,solubility (mole fraction),"in n-propanol, 318.15 K",0.0417
same,solubility (mole fraction),"in n-propanol, 323.15 K",0.0532
